Legend:
[1] = oral administration; cited from earlier work
[2] = Particle size stability of micronised ADA in capsules on storage; format: physicochemical
Experimental: After having manufactured micronised ADA under the conditions of examples 1 and 2, a size distribution of the ADA crystals was obtained, as illustrated on the appended FIG. 2.
Thereafter the active substance was incorporated into capsules which have been stored for 11 months within a refrigerator at 8° C., in order to determine the stability of ADA according to the standards (International Harmonisation Conference: ICH).
The size of the ADA particles has been determined again at this moment as well as after 3 additional months within a stove at 25° C./60% humidity.

[3] = water and organic solvents; cited from earlier work
[4] = tested on: reactivity of the respiratory tracts; test: Reactivity of respiratory tracts in ovalbumin-sensitised rats; format: in vivo; conditions: sensitised Brown Norway rats, force feeding twice a day 125 and 250 mg/kg, day -1 to day 20, all doses of methacholine
Experimental: At day 0, Brown Norway rats (200-250 g) were sensitised by intraperitoneal administration (1 ml/rat) of ovalbumin (1 mg/ml) mixed with aluminium hydroxide (100 mg/ml).
In this experiment, micronised ADA according to the invention is administered to rats by force feeding in the form of a suspension in poloxamer 188. The administration takes place twice a day in doses of 125 and 250 mg/kg, from day −1 up to day 20.

[5] = Particle size analysis by laser diffraction during micronisation; format: physicochemical
Experimental: A thorough fragmentation of dry powder forming each of these batches is carried out, feeding them at a rate of 4 kg/h into a known dry powder disintegration device, for example into a device of the Alpine® 100 AFG Jet Mill model from Hosokawa Micron Group. This device comprises a cylindrical milling chamber with a conical bottom which is made of stainless steel coated with an elastomer. This chamber has a diameter of 100 mm and a volume of 800 cm^3. The particles to disintegrate are introduced into the chamber by an endless screw. Then the particles are projected against each other by compressed air jets from 3 air nozzles having a diameter of 2 mm which run into each other at the same point. The obtained air stream carries then the disintegrated particles at 50 bar towards a turbo-selecting device which is integrated within the milling chamber. In this example this turbo-selecting device has the shape of a squirrel-cage which has adjustable rotational speed of 5000 to 16000 rpm.
This device allows the exit of the particles smaller than a determined size, in this case <5 μm, and repulses into the milling chamber the particles having a greater size. The fine particles (searched size) which leave the milling chamber are collected for example by means of a cyclone.
The sizes of the particles were then analysed. In order to analyse the diameters use was made of a RODOS & RODOS/M dry powder dispersion device (from Sympatec GmbH) and a VIBRI vibratory powder feed tool (from Sympatec GmbH) with a HELOS laser diffraction system (from Sympatec GmbH). The powders analysed were fed at a rate of 35% of the maximum rate. On passing through an air jet, the powder is subjected to shearing forces of around 3.0 bar. Using a vacuum (90-100 mbar) they are then sucked into the path of a HE/NE laser beam. The diffraction of the laser beam by the particles creates a model which is measured and converted by computer into a particle size distribution using software associated with the HELOS system.

[6] = Comparative examination of bioavailability (biurea in blood after force feeding); format: in vivo; conditions: mice, force feeding, 10, 5 and 1.25 mg/kg, 30 minutes after ingestion, suspension in CMC, FIG. 1
Experimental: 54 mice are randomly divided into 9 groups of 6 animals and receive a dose of ADA by force feeding.
The concentration of biurea, the only catabolite of ADA “in vivo” (Concise International Chemical Assessment Document 16; World Health Organisation: Geneva, 1999) in the blood serum (μg/ml) was determined 30 minutes after ingestion by means of a high-pressure liquid chromatography method. This concentration represents a measurement of the bioavailability of ADA in the organism.
Analysis of the plasma samples was carried out by high-pressure liquid chromatography, followed by mass spectrometry, in accordance with the standards of the “Food and Drug (USA) Administration May 2001: Guidance for Industry: Bioanalytical method validation” (lowest quantification limit (LOQ) of 0.20 μg/ml and linear method up to 20 μg/ml).

dogs = test: 28-day oral toxicity in dogs; format: in vivo
Experimental: (§1) Tests were carried out on rats to which daily doses of 900, 150 and 25 mg of ADA according to the invention/kg of body weight were administered orally for 28 days. The ADA was in the form of a micronised powder according to the invention in suspension in carboxymethylcellulose. Likewise an identical test was carried out on dogs at daily doses for 28 days of 400, 100 and 25 mg of ADA according to the invention/kg of body weight.
On the dogs that received 400 mg/kg/day for 28 days, a histological examination was also carried out with dissection of the kidneys.

healthy male volunteers = test: Examination of toxicity on human beings (urine examination by flow cytometry); format: in vivo; conditions: capsules, seven days, up to 6 g per day, limit of detection 2 μm
Experimental: “ESB free” gelatine-coated capsules containing a composition as described in example 4 were administered for seven days to healthy male volunteers at a dose ranging up to 6 g per day (single dose of 150 to 6,000 mg and repeated doses of 300 to 2,400 mg).
A urine examination was carried out using flow cytometry (limit of detection 2 μm).

rats = test: 28-day oral toxicity in rats; format: in vivo; conditions: daily 900, 150 and 25 mg/kg for 28 days, suspension in carboxymethylcellulose
Experimental: as §1

[7] = Test date Aug. 7, 2005, 3 additional months at 25° C./60% humidity
[8] = Test date Jun. 20, 2004, after manufacture
[9] = Test date May 7, 2005, capsules stored 11 months in refrigerator at 8° C.
[10] = End of micronisation, listed as B
[11] = Middle of micronisation, listed as B
[12] = Start of micronisation, listed as B
[13] = End of micronisation, listed as A
[14] = Middle of micronisation, listed as A
[15] = Start of micronisation, listed as A
[16] = End of micronisation, listed as C
[17] = Middle of micronisation, listed as C
[18] = Start of micronisation, listed as C

## NC(=O)N=NC(N)=O [ADA as commercially available, azodicarbonamide]
[1]
  Formation of biurea crystals in the urine: the formation of biurea crystals is quickly observed in the urine

## NC(=O)N=NC(N)=O [Batch K9K, azodicarbonamide]
[2]; [7]
  Particle sizes D10: 0.74 μm
  Particle sizes D50: 1.93 μm
[2]; [8]
  Particle sizes D10: 0.59 μm
  Particle sizes D50: 1.56 μm
[2]; [9]
  Particle sizes D10: 0.69 μm
  Particle sizes D50: 1.74 μm

## NC(=O)N=NC(N)=O [ADA, Azodicarbonamide]
[3]
  Solubility: not very soluble in water or in the majority of organic solvents
[4]
  Inhibition of the increase in reactivity of the respiratory tracts caused by antigen attack: significant inhibition

## NC(=O)N=NC(N)=O [Batch B, azodicarbonamide]
[5]; [10]
  Granulometry of particles during micronisation d10: 0.59 μm
  Granulometry of particles during micronisation d50: 1.56 μm
  Granulometry of particles during micronisation d90: 3.68 μm
[5]; [11]
  Granulometry of particles during micronisation d10: 0.58 μm
  Granulometry of particles during micronisation d50: 1.59 μm
  Granulometry of particles during micronisation d90: 3.88 μm
[5]; [12]
  Granulometry of particles during micronisation d10: 0.58 μm
  Granulometry of particles during micronisation d50: 1.58 μm
  Granulometry of particles during micronisation d90: 3.71 μm

## NC(=O)N=NC(N)=O [azodicarbonamide]
[6]
  Bioavailability of ADA in the blood (concentration of biurea): appreciably better than the non-micronised ADA
[6]; listed as ADA according to the invention
  Bioavailability of ADA in the blood (concentration of biurea): even better bioavailability than completely dissolved ADA
dogs; 400 mg/kg/day for 28 days
  Biurea crystals in kidneys (histological examination): no biurea crystals were observed
dogs; oral, daily 400, 100 and 25 mg/kg for 28 days
  Adverse effect: In neither of the two tests was any adverse effect observed
Healthy male volunteers
  Kidney stones or cylinders in urine: No kidney stones or cylinders were observed
[2]; no additive, 11 months 8° C. plus 3 months 25° C./60% humidity, FIG. 3
  Stability of particle size on storage: stability of ADA according to the invention clearly results
rats
  Adverse effect: In neither of the two tests was any adverse effect observed

## NC(=O)N=NC(N)=O [Batch A, azodicarbonamide]
[5]; [13]
  Granulometry of particles during micronisation d10: 0.56 μm
  Granulometry of particles during micronisation d50: 1.51 μm
  Granulometry of particles during micronisation d90: 3.50 μm
[5]; [14]
  Granulometry of particles during micronisation d10: 0.56 μm
  Granulometry of particles during micronisation d50: 1.53 μm
  Granulometry of particles during micronisation d90: 3.55 μm
[5]; [15]
  Granulometry of particles during micronisation d10: 0.58 μm
  Granulometry of particles during micronisation d50: 1.61 μm
  Granulometry of particles during micronisation d90: 3.78 μm

## NC(=O)N=NC(N)=O [Batch K9L, azodicarbonamide]
[2]; [7]
  Particle sizes D10: 0.76 μm
  Particle sizes D50: 2.08 μm
[2]; [8]
  Particle sizes D10: 0.57 μm
  Particle sizes D50: 1.58 μm
[2]; [9]
  Particle sizes D10: 0.72 μm
  Particle sizes D50: 1.88 μm

## NC(=O)N=NC(N)=O [Batch C, azodicarbonamide]
[5]; [16]
  Granulometry of particles during micronisation d10: 0.57 μm
  Granulometry of particles during micronisation d50: 1.58 μm
  Granulometry of particles during micronisation d90: 3.85 μm
[5]; [17]
  Granulometry of particles during micronisation d10: 0.57 μm
  Granulometry of particles during micronisation d50: 1.56 μm
  Granulometry of particles during micronisation d90: 3.69 μm
[5]; [18]
  Granulometry of particles during micronisation d10: 0.56 μm
  Granulometry of particles during micronisation d50: 1.47 μm
  Granulometry of particles during micronisation d90: 3.43 μm

## NC(=O)N=NC(N)=O [Batch K9J, azodicarbonamide]
[2]; [7]
  Particle sizes D10: 0.76 μm
  Particle sizes D50: 2.05 μm
[2]; [8]
  Particle sizes D10: 0.56 μm
  Particle sizes D50: 1.51 μm
[2]; [9]
  Particle sizes D10: 0.72 μm
  Particle sizes D50: 1.86 μm
